Results on two molecules are retold here after patent US11857600B2, “GPCR heteromer inhibitors and uses thereof” (GPCR THERAPEUTICS, INC., priority 2017, dated 2024).

What all share (assay type): cell-based
Assay [1] concerns the target T1, CXCR4 (Homo sapiens, UniProt P61073).
T1 construct: expressed in transfected cells
In words: Calcium mobilization assay in MDA-MB-231 cells expressing CXCR4 alone. The following applies: cells expressing CXCR4 alone; CXCR4 inhibitor only; stimulated with CXCL12 20 nM and Salmeterol 1 μM; read-out: CXCR4 IC50 of Ca2+ response. How it is done: The cells were then stained with Cal-6 for 2 hours and stimulated with CXCR4 agonsit (CXCL12; 20 nM) and ADRB2 agonist (Salmeterol; 1 μM).

In assay [2] the target is T2, CXCR4-ADRB2 heteromer (Homo sapiens, UniProt P07550+P61073).
T2 construct: expressed in transfected cells
T2 sequence (P61073 whole entry): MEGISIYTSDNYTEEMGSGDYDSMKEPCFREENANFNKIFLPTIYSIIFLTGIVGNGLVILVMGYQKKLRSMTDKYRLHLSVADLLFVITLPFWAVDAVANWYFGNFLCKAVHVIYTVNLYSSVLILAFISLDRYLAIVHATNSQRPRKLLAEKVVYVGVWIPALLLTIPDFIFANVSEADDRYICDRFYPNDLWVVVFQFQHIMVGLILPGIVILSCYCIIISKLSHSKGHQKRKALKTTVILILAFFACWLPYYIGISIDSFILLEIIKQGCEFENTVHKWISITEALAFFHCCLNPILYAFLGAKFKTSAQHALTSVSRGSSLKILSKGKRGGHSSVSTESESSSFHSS
T2 sequence (P07550 whole entry): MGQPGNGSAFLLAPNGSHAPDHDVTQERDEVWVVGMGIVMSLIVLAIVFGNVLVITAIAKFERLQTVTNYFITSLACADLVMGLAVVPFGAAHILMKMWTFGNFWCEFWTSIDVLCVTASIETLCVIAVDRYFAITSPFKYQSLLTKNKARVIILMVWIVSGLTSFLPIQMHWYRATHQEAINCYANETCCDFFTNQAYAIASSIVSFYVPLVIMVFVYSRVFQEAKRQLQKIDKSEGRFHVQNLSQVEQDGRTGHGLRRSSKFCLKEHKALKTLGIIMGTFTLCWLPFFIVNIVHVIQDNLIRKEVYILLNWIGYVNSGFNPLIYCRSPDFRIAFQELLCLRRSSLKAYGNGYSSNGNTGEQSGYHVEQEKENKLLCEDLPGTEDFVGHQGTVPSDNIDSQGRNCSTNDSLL
In words: Calcium mobilization assay, enhanced signaling of CXCR4-ADRB2 heteromer in MDA-MB-231 cells. The conditions noted are these: CXCR4 inhibitor only.

The target in assay [3] is T3, CXCR4-HRH1 heteromer (Homo sapiens, UniProt P35367+P61073).
T3 construct: expressed in transfected cells
T3 sequence (P61073 whole entry): as the sequence (P61073 whole entry) above
T3 sequence (P35367 whole entry): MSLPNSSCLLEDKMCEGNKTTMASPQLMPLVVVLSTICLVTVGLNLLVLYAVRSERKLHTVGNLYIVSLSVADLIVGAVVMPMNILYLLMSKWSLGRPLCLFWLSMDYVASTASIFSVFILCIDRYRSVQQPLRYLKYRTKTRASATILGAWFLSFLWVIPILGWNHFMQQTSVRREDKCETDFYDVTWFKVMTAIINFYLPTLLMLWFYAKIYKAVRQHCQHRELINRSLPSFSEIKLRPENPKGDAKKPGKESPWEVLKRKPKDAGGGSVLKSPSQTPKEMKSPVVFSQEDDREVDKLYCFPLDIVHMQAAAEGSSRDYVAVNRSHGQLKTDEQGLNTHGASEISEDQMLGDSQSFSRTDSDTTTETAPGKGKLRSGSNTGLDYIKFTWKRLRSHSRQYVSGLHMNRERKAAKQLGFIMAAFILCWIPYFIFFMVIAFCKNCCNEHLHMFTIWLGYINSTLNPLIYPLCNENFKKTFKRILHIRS
In words: Calcium mobilization assay, enhanced signaling of CXCR4-HRH1 heteromer in MDA-MB-231 cells. The following applies: CXCR4 inhibitor only; CXCL12 20 nM and Histamine 1 nM; read-out: IC50 of Ca2+ response, HRH1 inhibitor: None. How it is done:
The efficiency of CXCR4 inhibitors in suppressing the enhanced signaling of CXCR4-HRH1 heteromer was measured in the absence or presence of the representative HRH1 inhibitors Hydroxyzine, Prometazine, or Cyproheptadine (Table 8). […] Inhibitors were treated 30 min before agonist stimulation. Ca2+ mobilization was measured as described in FIG. 5, and IC50 values were calculated using GraphPad Prism software.
(A change in cytosolic calcium serves as a functional read-out for many receptors and channels.)

Assay [4] concerns the target CXCR4-ADCYAP1R1 heteromer (Homo sapiens, UniProt P41586+P61073). In words: Calcium mobilization assay, enhanced signaling of CXCR4-ADCYAP1R1 heteromer in MDA-MB-231 cells. The conditions noted are these: CXCR4 inhibitor only; CXCL12 20 nM and PACAP-38 1 nM; read-out: IC50 of Ca2+ response, ADCYAP1R1 inhibitor: None. How it is done: (§1) Inhibitors were treated 30 min before agonist stimulation. Ca2+ mobilization was measured as described in FIG. 5, and IC50 values were calculated using GraphPad Prism software.

Assay [5] addresses T4, CXCR4-C5AR1 heteromer (Homo sapiens, UniProt P21730+P61073).
T4 construct: expressed in transfected cells
In words: Calcium mobilization assay, enhanced signaling of CXCR4-C5AR1 heteromer in MDA-MB-231 cells. The conditions noted are these: CXCR4 inhibitor only; CXCL12 20 nM and C5a 0.03 nM; read-out: IC50 of Ca2+ response, C5AR1 inhibitor: None. The protocol: as §1

For assay [6], the target named is CXCR4-CALCR heteromer (Homo sapiens, UniProt P30988+P61073). In words: Calcium mobilization assay, enhanced signaling of CXCR4-CALCR heteromer in MDA-MB-231 cells. The following applies: CXCR4 inhibitor only; CXCL12 20 nM and calcitonin 100 nM; read-out: IC50 of Ca2+ response, CALCR inhibitor: None. How it is done: as §1
Chain of CXCR4-CALCR heteromer (P61073 whole entry): as the sequence (P61073 whole entry) above
Chain of CXCR4-CALCR heteromer (P30988 25-474): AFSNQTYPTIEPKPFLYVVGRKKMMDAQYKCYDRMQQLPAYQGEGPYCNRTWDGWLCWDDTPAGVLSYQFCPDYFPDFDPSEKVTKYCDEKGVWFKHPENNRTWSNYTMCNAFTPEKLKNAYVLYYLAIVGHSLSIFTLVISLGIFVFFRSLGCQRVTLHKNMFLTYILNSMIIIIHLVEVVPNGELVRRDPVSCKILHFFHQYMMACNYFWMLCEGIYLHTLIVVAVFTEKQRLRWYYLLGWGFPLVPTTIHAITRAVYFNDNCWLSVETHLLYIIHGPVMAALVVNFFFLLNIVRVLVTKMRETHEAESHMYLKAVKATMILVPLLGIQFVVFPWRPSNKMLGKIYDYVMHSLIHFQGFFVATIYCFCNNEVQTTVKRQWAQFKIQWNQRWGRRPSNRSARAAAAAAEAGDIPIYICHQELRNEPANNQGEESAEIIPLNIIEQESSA
Assay [7] addresses T5, CXCR4-EDNRB heteromer (Homo sapiens, UniProt P24530+P61073).
T5 construct: expressed in transfected cells
In words: Calcium mobilization assay, enhanced signaling of CXCR4-EDNRB heteromer in MDA-MB-231 cells. The following applies: CXCR4 inhibitor only; CXCL12 20 nM and BQ3020 0.5 nM; read-out: IC50 of Ca2+ response, EDNRB inhibitor: None. How it is done: The efficiency of CXCR4 inhibitors in suppressing the enhanced signaling of CXCR4-EDNRB heteromer was measured in the absence or presence of the representative EDNRB inhibitors ambrisentan or bosentan (Table 12). […] Inhibitors were treated 30 min before agonist stimulation. Ca2+ mobilization was measured as described in FIG. 5, and IC50 values were calculated using GraphPad Prism software.

For assay [8], the target named is T6, CXCR4-MLNR heteromer (Homo sapiens, UniProt O43193+P61073).
T6 construct: expressed in transfected cells
T6 sequence (P61073 whole entry): as the sequence (P61073 whole entry) above
T6 sequence (O43193 whole entry): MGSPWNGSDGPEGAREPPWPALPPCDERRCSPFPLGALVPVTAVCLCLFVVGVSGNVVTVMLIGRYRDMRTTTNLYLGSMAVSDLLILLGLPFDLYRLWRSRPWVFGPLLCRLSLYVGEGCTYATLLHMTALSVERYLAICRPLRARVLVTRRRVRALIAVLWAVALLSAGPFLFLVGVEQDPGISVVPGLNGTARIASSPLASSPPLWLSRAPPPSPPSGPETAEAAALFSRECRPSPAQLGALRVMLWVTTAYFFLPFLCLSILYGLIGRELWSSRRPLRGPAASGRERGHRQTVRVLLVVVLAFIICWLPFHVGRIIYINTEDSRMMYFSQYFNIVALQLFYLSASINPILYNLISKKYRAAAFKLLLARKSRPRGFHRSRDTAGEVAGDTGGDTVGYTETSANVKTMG
In words: Calcium mobilization assay, enhanced signaling of CXCR4-MLNR heteromer in MDA-MB-231 cells. The following applies: CXCR4 inhibitor only; CXCL12 20 nM and motilin 0.2 nM; read-out: IC50 of Ca2+ response, MLNR inhibitor: None. The protocol:
as §1

Assay [9] concerns the target T7, CXCR4-TACR3 heteromer (Homo sapiens, UniProt P29371+P61073).
T7 construct: expressed in transfected cells
In words: Calcium mobilization assay, enhanced signaling of CXCR4-TACR3 heteromer in MDA-MB-231 cells. The following applies: CXCR4 inhibitor only; CXCL12 20 nM and neurokinin B 0.3 nM; read-out: IC50 of Ca2+ response, TACR3 inhibitor: None. How it is done:
as §1

The target of assay [10] is T8, CXCR4-NTSR1 heteromer (Homo sapiens, UniProt P30989+P61073).
T8 construct: expressed in transfected cells
T8 sequence (P61073 whole entry): as the sequence (P61073 whole entry) above
T8 sequence (P30989 whole entry): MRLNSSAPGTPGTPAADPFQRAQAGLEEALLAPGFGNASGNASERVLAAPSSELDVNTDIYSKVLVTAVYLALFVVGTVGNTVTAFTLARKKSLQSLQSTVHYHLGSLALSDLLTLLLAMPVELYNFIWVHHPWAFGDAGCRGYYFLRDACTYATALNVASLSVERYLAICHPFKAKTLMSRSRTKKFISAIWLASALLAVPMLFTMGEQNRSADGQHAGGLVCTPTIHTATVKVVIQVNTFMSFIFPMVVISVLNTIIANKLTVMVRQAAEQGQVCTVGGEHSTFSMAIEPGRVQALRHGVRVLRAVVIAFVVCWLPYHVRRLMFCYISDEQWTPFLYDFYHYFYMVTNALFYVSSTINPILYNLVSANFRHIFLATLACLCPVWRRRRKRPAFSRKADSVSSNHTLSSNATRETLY
In words: Calcium mobilization assay, enhanced signaling in MDA-MB-231 cells co-expressing CXCR4 and NTSR1. The following applies: antagonist 1 μM; FIG. 8K.

SMILES strings stand for the structures. Read-outs that look alike come from different tables or passages of the source. Where a SMILES comes first, the peptide text is derived from it. Bridges are numbered along the chain shown (N, C = ends). [ ]: non-standard residue; d: D form. The star is where a group is joined. 2Nal = N[C@@H](Cc1ccc2ccccc2c1)C(=O)O; Benzoyl(4-F) = O=C(c1ccc(F)cc1)*; Cit = NC(=O)NCCC[C@H](N)C(=O)O

T7 sequence (P61073 whole entry): as the sequence (P61073 whole entry) above
T7 sequence (P29371 whole entry): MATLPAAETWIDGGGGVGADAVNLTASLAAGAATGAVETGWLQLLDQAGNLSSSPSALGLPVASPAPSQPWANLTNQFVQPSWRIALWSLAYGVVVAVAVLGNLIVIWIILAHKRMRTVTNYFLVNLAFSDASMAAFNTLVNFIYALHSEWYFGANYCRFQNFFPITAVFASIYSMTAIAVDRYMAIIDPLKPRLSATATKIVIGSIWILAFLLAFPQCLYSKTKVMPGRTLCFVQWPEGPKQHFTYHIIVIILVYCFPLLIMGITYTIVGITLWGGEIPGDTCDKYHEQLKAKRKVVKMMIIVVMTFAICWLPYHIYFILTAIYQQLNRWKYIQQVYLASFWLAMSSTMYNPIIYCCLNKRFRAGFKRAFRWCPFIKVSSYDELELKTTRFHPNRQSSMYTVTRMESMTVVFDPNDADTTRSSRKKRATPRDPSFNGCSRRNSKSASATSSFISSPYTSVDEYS
T1 sequence (P61073 whole entry): as the sequence (P61073 whole entry) above
Chain of CXCR4-ADCYAP1R1 heteromer (P61073 whole entry): as above
Chain of CXCR4-ADCYAP1R1 heteromer (P41586 21-468): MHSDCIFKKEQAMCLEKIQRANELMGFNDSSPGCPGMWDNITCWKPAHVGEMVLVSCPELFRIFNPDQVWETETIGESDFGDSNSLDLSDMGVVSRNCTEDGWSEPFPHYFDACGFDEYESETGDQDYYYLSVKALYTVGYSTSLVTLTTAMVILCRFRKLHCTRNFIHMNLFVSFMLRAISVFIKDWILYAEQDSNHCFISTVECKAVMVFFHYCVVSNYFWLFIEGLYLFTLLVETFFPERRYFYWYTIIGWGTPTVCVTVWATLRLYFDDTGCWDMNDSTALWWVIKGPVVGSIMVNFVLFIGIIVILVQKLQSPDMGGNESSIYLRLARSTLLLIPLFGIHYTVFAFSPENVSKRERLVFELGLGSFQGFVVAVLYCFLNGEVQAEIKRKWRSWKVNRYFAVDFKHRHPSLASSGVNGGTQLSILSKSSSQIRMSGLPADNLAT
T4 sequence (P61073 whole entry): as the sequence (P61073 whole entry) above
T4 sequence (P21730 whole entry): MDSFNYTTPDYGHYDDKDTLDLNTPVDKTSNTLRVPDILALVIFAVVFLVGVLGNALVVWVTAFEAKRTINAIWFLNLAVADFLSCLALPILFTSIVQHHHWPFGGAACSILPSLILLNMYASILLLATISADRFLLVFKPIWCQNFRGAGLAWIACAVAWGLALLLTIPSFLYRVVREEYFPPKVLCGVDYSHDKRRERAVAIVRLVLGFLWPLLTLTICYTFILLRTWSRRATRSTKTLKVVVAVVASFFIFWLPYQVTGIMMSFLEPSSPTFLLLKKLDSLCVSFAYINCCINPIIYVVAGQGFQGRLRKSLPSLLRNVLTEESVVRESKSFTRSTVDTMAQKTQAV
T5 sequence (P61073 whole entry): as the sequence (P61073 whole entry) above
T5 sequence (P24530 27-442): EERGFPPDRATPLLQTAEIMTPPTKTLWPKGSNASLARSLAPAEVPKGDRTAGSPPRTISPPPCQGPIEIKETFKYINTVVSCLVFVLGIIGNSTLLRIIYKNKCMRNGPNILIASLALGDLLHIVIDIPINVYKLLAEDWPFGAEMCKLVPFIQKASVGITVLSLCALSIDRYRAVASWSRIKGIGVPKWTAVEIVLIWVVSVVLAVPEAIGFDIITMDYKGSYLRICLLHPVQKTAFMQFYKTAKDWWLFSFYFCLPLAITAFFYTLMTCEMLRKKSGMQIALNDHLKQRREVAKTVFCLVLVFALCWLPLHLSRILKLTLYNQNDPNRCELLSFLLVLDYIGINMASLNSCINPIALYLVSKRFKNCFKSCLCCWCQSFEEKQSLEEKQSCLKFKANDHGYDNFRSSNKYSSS

In general, IC50 refers to the concentration that gives 50% inhibition. As for `N=C(N)NCCC[C@H](NC(=O)[C@@H]1CSSC[C@H](NC(=O)[C@H](Cc2ccc3ccccc3c2)NC(=O)[C@H](CCCNC(=N)N)NC(=O)[C@H](CCCNC(=N)N)NC(=O)c2ccc(F)cc2)C(=O)N[C@@H](Cc2ccc(O)cc2)C(=O)N[C@@H](CCCNC(N)=O)C(=O)N[C@@H](CCCCN)C(=O)N[C@H](CCCCN)C(=O)N2CCC[C@H]2C(=O)N[C@@H](Cc2ccc(O)cc2)C(=O)N[C@@H](CCCNC(=N)N)C(=O)N[C@@H](CCCNC(N)=O)C(=O)N1)C(N)=O` [BKT140] ({Benzoyl(4-F)}-RR[2Nal]CY[Cit]K[dK]PYR[Cit]CR-NH2; disulfide 4-13; C-terminus assumed), the IC50 turned out to be 434 ± 4.38 nM in [1]; 130 ± 49.8 nM in assay [2] (CXCR4 + ADRB2 (−Carvedilol) IC50 of Ca2+ response, stimulated with CXCL12 20 nM and Salmeterol 1 μM); 124 ± 76.9 nM in assay [2] (Table 7, CXCL12 20 nM and Salmeterol 1 μM, read-out: IC50 of Ca2+ response, ADRB2 inhibitor: None); 232 ± 91.9 nM in assay [3]; 213 ± 143 nM in assay [4]; 118 ± 56.5 nM in assay [5]. The IC50 is 1040 ± 757 nM in assay [6], 2680 ± 3930 nM in assay [7], 644 ± 163 nM in assay [8] and 1500 ± 420 nM in assay [9].
As for `COc1cccc(OC)c1-c1cc(C(=O)NC2(C(=O)O)C3CC4CC(C3)CC2C4)nn1-c1ccnc2cc(Cl)ccc12` (centres unmarked) [meclinertant], the “suppression of enhanced calcium signaling upon co-stimulation with CXCL12 and NTSR1 agonist” value in assay [10] was “suppressed the enhanced calcium signaling significantly”.
